Laboratory results: ChEMBL document CHEMBL1128813, “Inhibitors of glucosidases with related structures and inverse specificity” (Bioorg Med Chem Lett, 1995)

Columns and labels:
[1] = Inhibitory activity against Beta-glucosidase from Almond; parameters: species or system Prunus dulcis
[2] = Inhibitory activity against Beta-glucosidase from Yeast; parameters: species or system Saccharomyces cerevisiae
[3] = Inhibitory activity against Beta-glucosidase from E-coli; parameters: species or system Escherichia coli

Row | Ki [1] [µM] | Ki [2] [µM] | Structure (SMILES) | Ki [3] [µM]
1 | 80 | 2.5 | O=[N+]([O-])c1ccc(O/N=C2\OC(CO)C(O)C(O)C2O)c([N+](=O)[O-])c1 (centres undefined) | 120
2 | 100 | – | OCC1O/C(=N\O)C(O)C(O)C1O (centres undefined) | –
